Legend:
[1] = target: T1, recombinant HIV-1 RT enzyme (p66/51 dimer) (Human immunodeficiency virus type 1 group M subtype B, UniProt P04585); test: RT inhibition assay, incorporation of [32P]GTP into poly(rC)/oligo(dG); format: biochemical
T1 construct: recombinant HIV-1 RT enzyme (p66/51 dimer)
Method: RT Inhibition Assay. Analysis of the effects of the compounds on recombinant HIV-1 RT enzyme (p66/51 dimer) was performed as previously described. See, Buckheit, R. W. J.; Fliakas-Boltz, V.; Decker, W. D.; Robertson, J. L.; Stup, T. L.; Pyle, C. […] Antiviral Res. 1995, 26, 117-132, the disclosure of which is incorporated herein by reference. Briefly, inhibition of purified recombinant reverse transcriptase enzyme was measured by the incorporation of [^32P]GTP into poly(rC)/oligo(dG) (rCdG) homopolymer template primers.

HIV-1RF = test: MTS cytoprotection assay, HIV-1RF infection in CEM-SS cells; format: cell-based; settings: Human immunodeficiency virus 1; HIV-1RF in CEM-SS cells; read-out: EC50 HIV-1RF (inhibition of cytopathicity)
Method: (§1) In Vitro Antiviral Assays. Evaluation of the antiviral activity of compounds against HIV-1RF infection in CEM-SS cells was performed using the MTS cytoprotection assay as previously described. See, Rice, W. G.; Bader, J. P. Discovery and in Vitro Development of AIDS Antiviral Drugs as Biopharmaceuticals. Adv. Pharmacol. (San Diego) 1995, 6, 389-438, the disclosure of which is incorporated herein by reference. […] See, Pauwels, R.; Balzarini, J.; Baba, M.; Snoeck, R.; Schols, D.; Herdewijn, P.; Desmyter, J.; De Clercq, E. Rapid and Automated Tetrazolium-based Colorimetric Assay for Detection of Anti-HIV Compounds. J. Virol. Methods 1988, 20, 309-321, the disclosure of which is incorporated herein by reference.

HIV-1 strain IIIB = test: MTT assay, HIV-1 strain IIIB in MT-4 cells; format: cell-based; settings: Human immunodeficiency virus 1, MT4; HIV-1IIIB in MT-4 cells; read-out: EC50 HIV-1IIIB (inhibition of cytopathicity)
[2] = Cytotoxicity in mock-infected CEM-SS cells; format: cell-based; settings: human, uninfected (mock-infected) CEM-SS cells
Method: as §1, with “[…].;” for “D.; Herdewijn, P.; Desmyter, J.;”, “[…].” for “Clercq, E.”

[3] = Cytotoxicity in mock-infected MT-4 cells; format: cell-based; settings: human, uninfected (mock-infected) MT-4 cells
[4] = In vitro hydrolytic stability study in rat plasma; format: in vitro ADME; settings: for Rat Plasma tp1/2 (min ± SD): rat plasma in vitro, half-life; for hydrolysis in rat plasma: 37° C.
Method: NMR spectra were obtained at 300 MHz (^1H) and 75 MHz (^13C) in CDCl3 using CHCl3 as internal standard. Flash chromatography was performed with 230-400 mesh silica gel. […] Melting points are uncorrected. Unless otherwise stated, chemicals and solvents were of reagent grade and used as obtained from commercial sources without further purification. Tetrahydrofuran (THF) was freshly distilled from sodium/benzophenone ketyl radical prior to use. Dichloromethane was freshly distilled from calcium hydride prior to use. Lyophilized rat plasma (lot 052K7609) was obtained from Sigma Chemical Co., St. Louis, Mo. All yields given refer to isolated yields.
In vitro Hydrolytic Stability Study in Rat Plasma. […] See, Silvestri, M. A.; Nagarajan, M.; De Clercq, E.; Pannecouque, C.; Cushman, M. Design, Synthesis, Anti-HIV Activities, and Metabolic Stabilities of Alkenyldiarylmethane (ADAM) Non-nucleoside Reverse Transcriptase Inhibitors. J. Med. Chem. 2004, 47, 3149-3162, the disclosure of which is incorporated herein by reference.

HIV-2 strain (ROD) = test: MTT assay, HIV-2 strain (ROD) in MT-4 cells; format: cell-based; settings: Human immunodeficiency virus 2, MT4; HIV-2ROD in MT-4 cells; read-out: EC50 HIV-2-ROD (inhibition of cytopathicity)

| SMILES | IC50 [1] [µM] | EC50 (HIV-1RF) [µM] | EC50 (HIV-1 strain IIIB) [µM] | CC50 [2] [µM] | CC50 [3] [µM] | Rat Plasma tp1/2 (min ± SD) [4] [min] | EC50 (HIV-2 strain (ROD)) [µM] | hydrolysis in rat plasma ([4]; after three days) | hydrolysis in rat plasma ([4]; after 1 day) |
| --- | --- | --- | --- | --- | --- | --- | --- | --- | --- |
| COC(=O)c1cc(/C(=C\CCN2CCOC2=O)c2ccc(OC)c(OC)c2)cc(C)c1OC [Compound 3] | 1 | > 100 | > 1.05 | 0.49 | 1.05 | 5.76 ± 0.68 | > 1.05 |  |  |
| COC(=O)c1cc(/C(=C/CCN2CCOC2=O)c2ccc(OC)c(OC)c2)cc(C)c1OC [Compound 4, (Z)-5-[1-(3,4-Dimethoxyphenyl)-4-(2-oxo-oxazolidin-3-yl)-but-1-enyl]-2-methoxy-3-methyl-benzoic Acid Methyl Ester] | 0.9 | > 100 | > 33.8 | 0.6 | 83.1 | 0.79 ± 0.10 | > 35.4 |  |  |
| COC(=O)c1cc(/C(=C\CCN2CCOC2=O)c2cc(F)cc(C(F)(F)F)c2)cc(C)c1OC [Compound 7, (E)-5-[1-(3-Fluoro-5-trifluoromethylphenyl)-4-(2-oxo-oxazolidin-3-yl)-but-1-enyl]-2-methoxy-3-methylbenzoic Acid Methyl Ester] | 15.7 | 8.3 |  | 15 |  |  |  |  |  |
| COc1ccc(/C(=C\CCN2CCOC2=O)c2cc(F)cc(C(F)(F)F)c2)cc1OC [Compound 8, (E)-3-[4-(3-Fluoro-5-trifluoromethylphenyl)-4-(3,4-dimethoxyphenyl)-but-3-enyl]-oxazolidin-2-one] | 97.8 | > 100 |  | 14.5 |  |  |  | had not been hydrolyzed |  |
| COc1ccc(/C(=C\CCN2CCOC2=O)c2cc(F)ccc2C(F)(F)F)cc1OC [Compound 9, (E)-3-[4-(5-Fluoro-2-trifluoromethylphenyl)-4-(3,4-dimethoxyphenyl)-but-3-enyl]-oxazolidin-2-one] | > 100 | > 100 |  | 26.7 |  |  |  | had not been hydrolyzed |  |
| COC(=O)CCC/C=C(/c1cc(Cl)c(OC)c(C(=O)OC)c1)c1cc(Cl)ccc1OC [Compound 10, (Z)-3-Chloro-5-[1-(5-chloro-2-methoxyphenyl)-5-methoxycarbonyl-pent-1-enyl]-2-methoxybenzoic Acid Methyl Ester] | > 100 | > 100 |  | 15.5 |  | 0.77 ± 0.08 |  |  |  |
| COC(=O)CCC/C=C(/c1cc(C)c(OC)c(C(=O)OC)c1)c1cc(Cl)ccc1OC [Compound 11, (Z)-5-[1-(5-Chloro-2-methoxyphenyl)-5-methoxycarbonyl-pent-1-enyl]-2-methoxy-3-methylbenzoic Acid Methyl Ester] | > 100 | > 100 |  | 8 |  | 0.98 ± 0.02 |  |  |  |
| COC(=O)CCC/C=C(\c1cc(F)cc(C(F)(F)F)c1)c1cc(C)c(OC)c(C(=O)OC)c1 [Compound 12, (Z)-5-[1-(3-Fluoro-5-trifluoromethylphenyl)-5-methoxycarbonyl-pent-1-enyl]-2-methoxy-3-methylbenzoic Acid Methyl Ester] | > 100 | > 5 | > 5.51 | > 5 | 5.7 |  | > 5.89 |  |  |
| COC(=O)CCC/C=C(\c1cc(F)cc(C(F)(F)F)c1)c1cc(Cl)c(OC)c(C(=O)OC)c1 [Compound 13, (E)-3-Chloro-5-[1-(3-fluoro-5-trifluoromethylphenyl)-5-methoxycarbonyl-pent-1-enyl]-2-methoxy-benzoic Acid Methyl Ester] | > 100 | > 100 |  | 16.1 |  |  |  |  |  |
| COC(=O)CCC/C=C(\c1cc(C)c(OC)c(C(=O)OC)c1)c1cc(Cl)ccc1OC [Compound 14, (E)-5-[1-(5-Chloro-2-methoxyphenyl)-5-methoxycarbonyl-pent-1-enyl]-2-methoxy-3-methylbenzoic Acid Methyl Ester] | > 100 | > 100 |  | 8.3 |  | 0.49 ± 0.02 |  |  |  |
| COC(=O)CCC/C=C(/c1cc(F)cc(C(F)(F)F)c1)c1cc(C)c(OC)c(C(=O)OC)c1 [Compound 15, (E)-5-[1-(3-Fluoro-5-trifluoromethylphenyl)-5-methoxycarbonyl-pent-1-enyl]-2-methoxy-3-methylbenzoic Acid Methyl Ester] | 55.3 | 7.3 | 2.54 | 9.3 | 113 | 4.35 ± 0.41 | 10.6 |  |  |
| COC(=O)CCC/C=C(\c1cccc(C#N)c1)c1cc(Cl)c(OC)c(C(=O)OC)c1 [Compound 17, (E)-3-Chloro-5-[1-(3-cyanophenyl)-5-methoxycarbonyl-pent-1-enyl]-2-methoxybenzoic Acid Methyl Ester] | 0.75 | 7.1 | 8.55 | 20.2 | 213 | 0.44 ± 0.05 | > 223 |  |  |
| COC(=O)CCC/C=C(\c1cccc(C#N)c1)c1cc(Cl)ccc1OC [Compound 18, (E)-6-(5-Chloro-2-methoxyphenyl)-6-(3-cyanophenyl)-hex-5-enoic Acid Methyl Ester] | 0.78 | 7 | 9.11 | 16.3 | ≥ 45.1 | 0.42 ± 0.02 | > 67.6 |  |  |
| COC(=O)CCC/C=C(\c1cc(F)cc(C(F)(F)F)c1)c1cc(C)c2onc(OC)c2c1 [Compound 19, (Z)-6-(3-Fluoro-5-trifluoromethylphenyl)-6-(3-methoxy-7-methylbenzo[d]isoxazol-5-yl)-hex-5-enoic Acid Methyl Ester] | 0.9 |  |  |  |  |  |  |  |  |
| COC(=O)CCC/C=C(/c1cc(C)c2on(C)c(=O)c2c1)c1cc(Cl)ccc1OC [Compound 21, (Z)-6-(5-Chloro-2-methoxyphenyl)-6-(2,3-dihydro-2,7-dimethyl-3-oxo-benzo[d]isoxazol-5-yl)-hex-5-enoic Acid Methyl Ester] | 8.2 | > 100 |  | 13 |  | 0.48 ± 0.06 |  |  |  |
| COC(=O)CCC/C=C(\c1cc(F)cc(C(F)(F)F)c1)c1cc(C)c2on(C)c(=O)c2c1 [Compound 22, (Z)-6-(2,3-Dihydro-2,7-dimethyl-3-oxo-benzo[d]isoxazol-5-yl)-6-(3-fluoro-5-trifluoromethylphenyl)-hex-5-enoic Acid Methyl Ester] | > 100 | > 100 | > 35.7 | 16.8 | 39.8 |  | > 43.2 |  |  |
| COC(=O)CCC/C=C(/c1cc(C)c2onc(OC)c2c1)c1cc(C)c2oc(=O)n(C)c2c1 [Compound 67, (Z)-6-(3,7-Dimethyl-2-oxo-2,3-dihydro-benzoxazol-5-yl)-6-(3-methoxy-7-methyl-benzo[d]isoxazol-5-yl)-hex-5-enoic Acid Methyl Ester] | 0.25 |  |  |  |  |  |  |  |  |
| COc1noc2c(C)cc(/C(=C\CCN3CCOC3=O)c3cc(C)c4oc(=O)n(C)c4c3)cc12 [Compound 68, (E)-5-[1-(3-Methoxy-7-methylbenzo[d]isoxazol-5-yl)-4-(2-oxoxazolidin-3-yl)-but-1-enyl]-3,7-dimethyl-3H-benzoxazol-2-one] | 3.6 |  |  |  |  |  |  |  | had not been hydrolyzed |
